Structures are written as SMILES. Where a name gives a salt, the structure may show the parent alone.

The target in the assay is T1, Recombinant human IKKβ (residues 1-737) (Homo sapiens, UniProt O14920).
T1 construct: Recombinant human IKKβ (residues 1-737); GST (C); made in house
T1 sequence (O14920 1-737): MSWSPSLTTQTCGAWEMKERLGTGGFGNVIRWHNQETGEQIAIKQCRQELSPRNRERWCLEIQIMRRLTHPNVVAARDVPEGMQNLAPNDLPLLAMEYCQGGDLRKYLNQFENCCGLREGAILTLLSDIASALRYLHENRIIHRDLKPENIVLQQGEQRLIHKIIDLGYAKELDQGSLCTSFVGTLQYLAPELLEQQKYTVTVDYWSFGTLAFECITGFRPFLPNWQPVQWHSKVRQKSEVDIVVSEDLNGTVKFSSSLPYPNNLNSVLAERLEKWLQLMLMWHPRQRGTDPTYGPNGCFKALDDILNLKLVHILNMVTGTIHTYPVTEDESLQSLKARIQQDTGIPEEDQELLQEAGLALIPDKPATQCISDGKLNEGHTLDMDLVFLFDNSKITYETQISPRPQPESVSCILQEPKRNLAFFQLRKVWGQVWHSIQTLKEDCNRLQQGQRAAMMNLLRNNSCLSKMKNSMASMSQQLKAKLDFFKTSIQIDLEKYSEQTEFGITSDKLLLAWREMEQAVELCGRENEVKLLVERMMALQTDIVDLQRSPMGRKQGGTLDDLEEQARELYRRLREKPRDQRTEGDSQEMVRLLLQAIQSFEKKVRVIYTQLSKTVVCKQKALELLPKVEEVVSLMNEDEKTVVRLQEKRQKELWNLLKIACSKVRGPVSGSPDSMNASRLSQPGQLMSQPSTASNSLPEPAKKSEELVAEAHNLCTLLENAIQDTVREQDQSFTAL
Kind of assay: IKK2 assay (TR-FRET). Format: biochemical. The following applies: ATP 1 μM final, read-out: pIC50 against IKK2 (converted). On the procedure:
Recombinant human IKKβ (residues 1-737) was expressed in baculovirus as a C-terminal GST-tagged fusion protein, and its activity was assessed using a time-resolved fluorescence resonance energy transfer (TR-FRET) assay. Briefly, IKK2 (0.5 nM-5 nM final) diluted in assay buffer (50 mM HEPES, 10 mM MgCl2, 1 mM CHAPS pH 7.4 with 1 mM DTT and 0.01% w/v BSA) was added to wells containing various concentrations of compound or DMSO vehicle (1.7% final). The reaction was initiated by the addition of GST-IB substrate (25 nM final)/ATP (1 μM final), in a total volume of 6 μl. The reaction was incubated for 15 minutes at room temperature, then terminated by the addition of 3 μl of detection reagent in buffer containing 50 mM EDTA (100 mM HEPES pH 7.4, 150 mM NaCl, 50 mM EDTA and 0.01% w/v BSA) containing antiphosphoserine-IB-32/36 monoclonal antibody 12C2 (Cell Signalling Technology, Beverly Mass., USA) labelled with W-1024 europium chelate (Wallac OY, Turku, Finland), and an APC-labelled anti-GST antibody (Prozyme, San Leandro, Calif., USA) was added and the reaction was further incubated for 60 minutes at room temperature. The degree of phosphorylation of GST-IB was measured using a BMG Rubystar plate reader (BMG Labtech, Aylesbury, UK) as a ratio of specific 665 nm energy transfer signal to reference europium 620 nm signal.
(TR-FRET usually uses a lanthanide donor and a delayed reading to cut background.)
For the molecule `CCS(=O)(=O)N1CCC(c2c[nH]c3c(C(N)=O)cc(-c4ccc(OC)c(CNC(C)C)c4)cc23)CC1` [Example 265, 3-[1-(ethylsulfonyl)-4-piperidinyl]-5-[3-{[(1-methylethyl)amino]methyl}-4-(methyloxy)phenyl]-1H-indole-7-carboxamide trifluoroacetate], the IC50 is not above 10 µM. The same measure for `CCS(=O)(=O)N1CCC(c2c[nH]c3c(C(N)=O)cc(-c4ccc(OC)c(CNC)c4)cc23)CC1` [Example 266, 3-[1-(ethylsulfonyl)-4-piperidinyl]-5-[3-[(methylamino)methyl]-4-(methyloxy)phenyl]-1H-indole-7-carboxamide trifluoroacetate]: not above 10 µM; for `CCS(=O)(=O)N1CCC(c2c[nH]c3c(C(N)=O)cc(-c4ccc(OC)c(CNCC(C)(C)C)c4)cc23)CC1` [Example 267, 5-[3-{[(2,2-dimethylpropyl)amino]methyl}-4-(methyloxy)phenyl]-3-[1-(ethylsulfonyl)-4-piperidinyl]-1H-indole-7-carboxamide trifluoroacetate]: not above 10 µM; for `CCS(=O)(=O)N1CCC(c2c[nH]c3c(C(N)=O)cc(-c4cnn(CCN(C)CCO)c4)cc23)CC1` [Example 268, 3-[1-(ethylsulfonyl)-4-piperidinyl]-5-(1-{2-[(2-hydroxyethyl)(methyl)amino]ethyl}-1H-pyrazol-4-yl)-1H-indole-7-carboxamide]: not above 10 µM. The same measure for `CCNCc1cc(CNCC)cc(-c2cc(C(N)=O)c3[nH]cc(C4CCN(S(=O)(=O)CC)CC4)c3c2)c1` [Example 277, 5-{3,5-bis[(ethylamino)methyl]phenyl}-3-[1-(ethylsulfonyl)-4-piperidinyl]-1H-indole-7-carboxamide trifluoroacetate]: more than 10 µM. The same measure for `CCS(=O)(=O)N1CCC(c2c[nH]c3c(C(N)=O)cc(-c4cc(CN(C)C)cc(CN(C)C)c4)cc23)CC1` [Example 278, 5-{3,5-bis[(dimethylamino)methyl]phenyl}-3-[1-(ethylsulfonyl)-4-piperidinyl]-1H-indole-7-carboxamide trifluoroacetate]: more than 10 µM.

Take `CCS(=O)(=O)N1CCC(c2c[nH]c3c(C(N)=O)cc(-c4cccc(C5CCCCN5)c4)cc23)CC1` (stereo not drawn) [Example 279, 3-[1-(ethylsulfonyl)-4-piperidinyl]-5-[3-(2-piperidinyl)phenyl]-1H-indole-7-carboxamide trifluoroacetate]: the IC50 was not above 10 µM. The same measure for `CCNC(C)c1cccc(-c2cc(C(N)=O)c3[nH]cc(C4CCN(S(=O)(=O)CC)CC4)c3c2)c1` (stereo not drawn) [Example 280, 5-{3-[1-(ethylamino)ethyl]phenyl}-3-[1-(ethylsulfonyl)-4-piperidinyl]-1H-indole-7-carboxamide trifluoroacetate]: not above 10 µM. Turning to `CCS(=O)(=O)N1CCC(c2c[nH]c3c(C(N)=O)cc(-c4cccc(C(C)N(C)C)c4)cc23)CC1` (stereo not drawn) [Example 281, 5-{3-[1-(dimethylamino)ethyl]phenyl}-3-[1-(ethylsulfonyl)-4-piperidinyl]-1H-indole-7-carboxamide trifluoroacetate], the IC50 was not above 10 µM. Take `CCS(=O)(=O)N1CCC(c2c[nH]c3c(C(N)=O)cc(-c4cc(F)cc(CNC)c4)cc23)CC1` [Example 282, 3-[1-(ethylsulfonyl)-4-piperidinyl]-5-{3-fluoro-5-[(methylamino)methyl]phenyl}-1H-indole-7-carboxamide trifluoroacetate]: the IC50 was not above 10 µM. Regarding `CCNCc1cc(F)cc(-c2cc(C(N)=O)c3[nH]cc(C4CCN(S(=O)(=O)CC)CC4)c3c2)c1` [Example 283, 5-{3-[(ethylamino)methyl]-5-fluorophenyl}-3-[1-(ethylsulfonyl)-4-piperidinyl]-1H-indole-7-carboxamide trifluoroacetate], the IC50 is not above 10 µM.

Regarding `CCCNCc1cc(F)cc(-c2cc(C(N)=O)c3[nH]cc(C4CCN(S(=O)(=O)CC)CC4)c3c2)c1` [Example 284, 3-[1-(ethylsulfonyl)-4-piperidinyl]-5-{3-fluoro-5-[(propylamino)methyl]phenyl}-1H-indole-7-carboxamide trifluoroacetate], the IC50 is not above 10 µM.

The record behind these values is patent publication US8063071B2 (GlaxoSmithKline, LLC, priority 2007, dated 2011).
